Patent US20210137930A1, “EXPANSION OF TUMOR INFILTRATING LYMPHOCYTES (TILS) WITH ADENOSINE A2A RECEPTOR ANTAGONISTS AND THERAPEUTIC COMBINATIONS OF TILS AND ADENOSINE A2A RECEPTOR ANTAGONISTS” (Iovance Biotherapeutics, Inc., priority 2018, published 2021)

Experiments:
lung TILs = assay: Flow cytometry of CD8+ and CD4+ subsets, lung TILs expanded with CPI-444; format: cell-based, human; details: lung TIL cultures
Description: (§1) After TIL harvesting, the TILs are phenotypically analyzed: (1) the total number of cells were counted with an automated cell counter; (2) Flow cytometry was used to determine the fraction of TILs that were CD4^+, CD8^+, within the subset of memory T-Cells, and to determine the presence/absence of A2aR and the expression level of A2aR.
(§2) FIG. 43 illustrates the results of flow cytometry analysis of CD8^+ and CD4^+ subsets for melanoma TILs obtained after the addition of the A2AR antagonist to pre-REP and REP cultures under various conditions. FIG. 44 and FIG. 45 illustrates flow cytometry analysis of CD8^+ and CD4^+ subsets for lung TILs (first and second lung tumor, respectively) obtained after the addition of CPI-444 to pre-REP and REP cultures under various conditions.

melanoma TILs [1] = assay: Flow cytometry of CD8+ and CD4+ subsets, melanoma TILs expanded with CPI-444; format: cell-based, human; details: melanoma TIL cultures treated with A2aR antagonist
Description: as §1, §2

melanoma TILs [2] = assay: Cell counts of melanoma TILs expanded in pre-REP and REP with CPI-444; format: cell-based, human; details: pre-REP 11 days, melanoma tumor fragments pooled
Experimental: The expression of A2aR on TILs and the effect of an A2aR antagonist on TILs was evaluated by culturing melanoma tumor fragments or lung tumor fragments in both pre-REP and the REP phases either with or without the addition of CPI-444 (ciforadenant), an A2aR antagonist, which was obtained commercially from MedChemExpress, Inc., Monmouth Junction, N.J., USA. The experimental procedure is similar to that of Example 3 and Example 10, with the changes as described below.
Melanoma tumors and lung tumors were obtained from patients. The tumor samples were generally fragmented using sharp dissection into small pieces of about 3 mm×3 mm×3 mm. The TILs were cultured from these fragments using mechanical dissociation, using scalpel and forceps. Repeated cycles of mechanical dissociation and mixing were applied until only small tissue pieces are present. At the end of this process, the tumor fragments were placed into pre-REP culture. […]
as §1, with “A2aR. […]” for “A2aR.”

peripheral blood B cells = details: cynomolgus monkeys; doses from 0.001-100 mg/kg; two experiments; WO 2015/119923; cited from earlier work

Compound	CD8+ population (lung TILs; at the 12 nM, 48 nM and 32 μM concentrations)	CD8+ TIL populations, response to 8 μM versus 32 μM (lung TILs; second tumor)	CD8+ population (melanoma TILs [1])	Cell Count at end or preREP Culture (Millions of Cells) (melanoma TILs [2]; IL-2 + 12 nM CPI-444/100,000 Cells)	Cell Count at end or preREP Culture (Millions of Cells) (melanoma TILs [2]; IL-2 + 48 nM CPI-444/100,000 Cells)	peripheral blood B cell numbers (peripheral blood B cells)
Cc1ccc(-c2nc(N)nc3c2nnn3Cc2cccc(CO[C@H]3CCOC3)n2)o1 [CPI-444, 7-(5-methylfuran-2-yl)-3-[[6-[[(3S)-oxolan-3-yl]oxymethyl]pyridin-2-yl]methyl]triazolo[4,5-d]pyrimidin-5-amine]	increase	modulated differently	decrease	8.7 Millions of Cells	12.8 Millions of Cells	
PF-05082566: fully human immunoglobulin G2-lambda anti-4-1BB (CD137) agonist monoclonal antibody, Pfizer; SEQ ID NO:11 and 12						either unchanged or decreased
